Measured values taken from patent US9133115B2 (ACHILLION PHARMACEUTICALS, INC., priority 2008, dated 2015).

System: HCV replicon
Test: HCV replicon replication assay (NPT ELISA) in Huh-7 replicon-containing cells
Type: cell-based
Conditions: Hepatitis C virus, 72 h; HCV replicon in Huh-7 cells, three days incubation; read-out: EC50
How it was run: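 Replication was scored by capture ELISA of neomycin phosphotransferase, whose level tracks replicon replication, after graded compound treatment. The cells were Huh-7 harbouring an HCV-IRES/neo/EMCV-IRES/NS3–NS5B/3′-NTR replicon, plated at 6000-7500 cells/well and dosed 24 h later at 60-70% confluence; interferon alpha was the positive control.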

| Compound | EC50 |
| --- | --- |
| C=C[C@@H]1C[C@]1(NC(=O)[C@@H]1C[C@@H](Oc2cc(-c3ccccn3)nc3c(Cl)c(OC)ccc23)CN1C(=O)[C@@H](CC(=O)N1CCOCC1)C(C)(C)C)C(=O)NS(=O)(=O)C1CC1 [Compound 180, (2S,4R)-1-((S)-2-tert-butyl-4-morpholino-4-oxobutanoyl)-4-(8-chloro-7-methoxy-2-(pyridin-2-yl)quinolin-4-yloxy)-N-((1R,2S)-1-(cyclopropyl-sulfonylcarbamoyl)-2-vinyl-cyclopropyl)pyr-rolidine-2-carboxamide] | < 1000 nM |
| C=C[C@@H]1C[C@]1(NC(=O)[C@@H]1C[C@@H](Oc2cc(-c3ccccc3)nc3cc(OC)ccc23)CN1C(=O)[C@@H](CC(=O)N1CCCC1C(F)(F)F)C(C)(C)C)C(=O)NS(=O)(=O)C1CC1 (stereo partly drawn) [Compound 176, (2S,4R)-1-((2S)-2-tert-butyl-4-oxo-4-(2-(trifluoro-methyl)pyrrolidin-1-yl)butanoyl)-N-((1R,2S)-1-(cyclopropylsulfonyl-carbamoyl)-2-vinylcyclopropyl)-4-(7-methoxy-2-phenylquinolin-4-yloxy)pyrrolidine-2-carboxamide] | < 1000 nM |
| C=C[C@@H]1C[C@]1(NC(=O)[C@@H]1C[C@@H](NC(=O)c2cc(-c3ccccc3)nc3ccccc23)CN1C(=O)[C@@H](CC(=O)N1CCC(F)(F)C1)C(C)(C)C)C(=O)NS(=O)(=O)C1CC1 [Compound 201, N-((3R,5S)-1-((S)-2-tert-butyl-4-(3,3-difluoropyrrolidin-1-yl)-4-oxobutanoyl)-5-((1R,2S)-1-(cyclopropylsulfonyl-carbamoyl)-2-vinylcyclopropyl-carbamoyl)pyrrolidin-3-yl)-2-phenylquinoline-4-carboxamide] | < 1000 nM |
| C=C[C@@H]1C[C@]1(NC(=O)[C@@H]1C[C@@H](Oc2cc(-c3ccccc3)cc3cc(OC)ccc23)CN1C(=O)[C@@H](CC(=O)N1CCCCC1)C(C)(C)C)C(=O)NS(=O)(=O)C1CC1 [Compound 233, (2S,4R)-1-((S)-2-tert-butyl-4-oxo-4-(piperidin-1-yl)butanoyl)-N-((1R)-1-(cyclopropyl-sulfonylcarbamoyl)-2-vinylcyclopropyl)-4-(6-methoxy-3-phenylnaphthalen-1-yloxy)pyrrolidine-2-carboxamide] | < 1000 nM |
| C=C[C@@H]1C[C@]1(NC(=O)[C@@H]1C[C@@H](Oc2cc(-c3ccccc3)nc3cc(OC)ccc23)CN1C(=O)[C@@H](CC(=O)N1CCC(N(C2CC2)S(=O)(=O)c2cccc(C(F)(F)F)c2)CC1)C(C)(C)C)C(=O)NS(=O)(=O)C1CC1 [Compound 175, (2S,4R)-1-((S)-2-tert-butyl-4-(4-(N-cyclopropyl-3-(tri-fluoromethyl)phenyl-sulfonamido)piper-idin-1-yl)-4-oxobutanoyl)-N-((1R,2S)-1-(cyclopropyl-sulfonylcarbamoyl)-2-vinylcyclopropyl)-4-(7-methoxy-2-phenylquinolin-4-yloxy)pyrrolidine-2-carboxamide] | < 1000 nM |
| C=CC1CC1(NC(=O)C1C[C@@H](Oc2cc(-c3ccccc3)nc3cc(OC)ccc23)CN1C(=O)[C@@H](CC(=O)N1CCCCC1)CC1CCCCC1)C(=O)NS(=O)(=O)C1CC1 (stereo partly drawn) [Compound 54, (4R)-1-((R)-2-(cyclohexylmethyl)-4-oxo-4-(piperidin-1-yl)butanoyl)-N-(1-(cyclopropyl-sulfonylcarbamoyl)-2-vinylcyclopropyl)-4-(7-methoxy-2-phenylquinolin-4-yloxy)pyrrolidine-2-carboxamide] | < 1000 nM |
| C=C[C@@H]1C[C@]1(NC(=O)[C@@H]1C[C@@H](Oc2nc(-c3ccccc3)cc3cc(OC)ccc23)CN1C(=O)[C@@H](CC(=O)N1CCCCC1)C(C)(C)C)C(=O)NS(=O)(=O)C1CC1 [Compound 70, (2S,4R)-1-((S)-2-tert-butyl-4-oxo-4-(piperidin-1-yl)butanoyl)-N-((1R,2S)-1-(cyclo-propylsulfonyl-carbamoyl)-2-vinylcyclopropyl)-4-(6-methoxy-3-phenylisoquinolin-1-yloxy)pyrrolidine-2-carboxamide] | < 1000 nM |
| C=CC1C[C@]1(NC(=O)[C@@H]1C[C@@H](Oc2cc(-c3ccccc3)nc3cc(OC)ccc23)CN1C(=O)[C@@H](CC(=O)N1CCCC(CNC(=O)OC(C)(C)C)C1)C(C)(C)C)C(=O)NS(=O)(=O)C1CC1 (stereo partly drawn) [Compound 168, tert-butyl (1-((S)-3-((2S,4R)-2-((1R,2S)-1-(cyclopropyl-sulfonylcarbamoyl)-2-vinylcyclopropyl-carbamoyl)-4-(7-methoxy-2-phenylquinolin-4-yloxy)pyrrolidine-1-carbonyl)-4,4-dime-thylpentanoyl)piper-idin-3-yl)methylcarbamate] | < 1000 nM |
| C=CC1C[C@]1(NC(=O)[C@@H]1C[C@@H](Oc2cc(-c3ccccc3)nc3cc(OC)ccc23)CN1C(=O)[C@@H](CC(=O)N1CC(C)CC(C)C1)C(C)(C)C)C(=O)NS(=O)(=O)C1CC1 (some centres unmarked) [Compound 185] | < 1000 nM |
| C=C[C@@H]1C[C@]1(NC(=O)[C@@H]1C[C@@H](n2nnc(-c3ccccc3)c2-c2ccccc2)CN1C(=O)[C@@H](CC(=O)N1CCCCC1)C(C)(C)C)C(=O)NS(=O)(=O)C1CC1 [Compound 128, (2S,4R)-1-((S)-2-tert-butyl-4-oxo-4-(piperidin-1-yl)butanoyl)-N-((1R,2S)-1-(cyclo-propylsulfonyl-carbamoyl)-2-vinylcyclopropyl)-4-(4,5-diphenyl-1H-1,2,3-triazol-1-yl)pyrrolidine-2-carboxamide] | 1000 to 10000 nM |
| C=CC1C[C@]1(NC(=O)[C@@H]1C[C@@H](Oc2cc(-c3ccccc3)nc3cc(OC)ccc23)CN1C(=O)[C@@H](CC(=O)N1CCCCC1)CC(C)C)C(=O)NS(=O)(=O)C1CC1 (stereo partly drawn) [Compound 91, (2S,4R)-N-((1R,2R)-1-(cyclopropyl-sulfonylcarbamoyl)-2-vinylcyclopropyl)-4-(7-methoxy-2-phenylquinolin-4-yloxy)-1-((R)-4-methyl-2-(2-oxo-2-(piperidin-1-yl)ethyl)pentano-yl)pyrrolidine-2-carboxamide] | < 1000 nM |
| C=C[C@@H]1C[C@]1(NC(=O)[C@@H]1C[C@@H](Oc2cc(-c3ccccn3)nc3cc(OC)ccc23)CN1C(=O)[C@@H](CC(=O)N1CC2CC3CC(C2)CC1C3)C(C)(C)C)C(=O)NS(=O)(=O)C1CC1 [Compound 221] | > 10000 nM |
| C=C[C@@H]1C[C@]1(NC(=O)[C@@H]1C[C@@H](OC(=O)Nc2cccc(Oc3ccccc3)c2)CN1C(=O)[C@@H](CC(=O)N1CCCCC1)C(C)(C)C)C(=O)NS(=O)(=O)C1CC1 [Compound 95, (3R,5S)-1-((S)-2-tert-butyl-4-oxo-4-(piperidin-1-yl)butanoyl)-5-((1R,2S)-1-(cyclopropylsulfonyl-carbamoyl)-2-vinylcyclopropyl-carbamoyl)pyrrolidin-3-yl 3-phenoxyphenyl-carbamate] | 1000 to 10000 nM |
| C=C[C@@H]1C[C@@]1(NC(=O)[C@@H]1C[C@@H](Oc2cc(-c3ccccc3)nc3cc(OC)ccc23)CN1C(=O)[C@@H](CC(=O)N1CCCCC1)C(C)(C)C)C(=O)NS(=O)(=O)C1CC1 [Compound 38, (2S,4R)-1-((S)-2-tert-butyl-4-oxo-4-(piperidin-1-yl)butanoyl)-N-((1S,2S)-1-(cyclopropylsulfonyl-carbamoyl)-2-vinylcyclopropyl)-4-(7-methoxy-2-phenylquinolin-4-yloxy)pyrrolidine-2-carboxamide] | < 1000 nM |
| C=C[C@@H]1C[C@]1(NC(=O)[C@@H]1C[C@@H](OC(=O)n2c3ccc(Cl)cc3c3cc(Cl)ccc32)CN1C(=O)[C@@H](CC(=O)N1CCCCC1)C(C)(C)C)C(=O)NS(=O)(=O)C1CC1 [Compound 155, (3R,5S)-1-((S)-2-tert-butyl-4-oxo-4-(piperidin-1-yl)butanoyl)-5-((1R,2S)-1-(cyclo-propylsulfonyl-carbamoyl)-2-vinyl-cyclopropyl-carbamoyl)pyrrolidin-3-yl 3,6-dichloro-9H-carbazole-9-carboxylate] | < 1000 nM |
| C=C[C@@H]1C[C@]1(NC(=O)[C@@H]1C[C@@H](Oc2cc(-c3ccccc3)nc3cc(OC)ccc23)CN1C(=O)[C@@H](CC(=O)N1CCC[C@H]1C(=O)N(C)C)C(C)(C)C)C(=O)NS(=O)(=O)C1CC1 [Compound 88, (2S,4R)-1-((S)-2-tert-butyl-4-((S)-2-(dimethylcarbamo-yl)pyrrolidin-1-yl)-4-oxobutanoyl)-N-((1R,2S)-1-(cyclopropylsulfonyl-carbamoyl)-2-vinylcyclopropyl)-4-(7-methoxy-2-phenylquinolin-4-yloxy)pyrrolidine-2-carboxamide] | < 1000 nM |
| C=C[C@@H]1C[C@]1(NC(=O)[C@@H]1C[C@@H](Oc2cc(-c3ccccc3)nc3cc(OC)ccc23)CN1C(=O)[C@@H](CC(=O)N1CCC1c1ccccc1)C(C)(C)C)C(=O)NS(=O)(=O)C1CC1 (stereo partly drawn) [Compound 227, (2S,4R)-1-((2S)-2-tert-butyl-4-oxo-4-(2-phenylazetidin-1-yl)butanoyl)-N-((1R)-1-(cyclopropyl-sulfonylcarbamoyl)-2-vinylcyclopropyl)-4-(7-methoxy-2-phenylquinolin-4-yloxy)pyrrolidine-2-carboxamide] | < 1000 nM |
| C=C[C@@H]1C[C@]1(NC(=O)[C@@H]1C[C@@H](Oc2cc(-c3ccccc3)nc3cc(OC)ccc23)CN1C(=O)[C@@H](CC(=O)N1CCCCC1)C(C)(C)C)C(=O)NS(C)(=O)=O [Compound 68, (2S,4R)-1-((S)-2-tert-butyl-4-oxo-4-(piperidin-1-yl)butanoyl)-4-(7-methoxy-2-phenylquinolin-4-yloxy)-N-((1R,2S)-1-(methylsulfonyl-carbamoyl)-2-vinyl-cyclopropyl)pyr-rolidine-2-carboxamide] | < 1000 nM |
| COc1ccc2c(O[C@@H]3C[C@@H](C(=O)N[C@H](C(=O)NS(=O)(=O)C4CC4)C(C)C)N(C(=O)[C@@H](CC(=O)N4CCCCC4)C(C)(C)C)C3)cc(-c3ccccc3)nc2c1 [Compound 110, (2S,4R)-1-((S)-2-tert-butyl-4-oxo-4-(piperidin-1-yl)butanoyl)-N-((S)-1-(cyclopropane-sulfonamido)-3-methyl-1-oxobutan-2-yl)-4-(7-methoxy-2-phenylquinolin-4-yloxy)pyrrolidine-2-carboxamide] | 1000 to 10000 nM |

Same assay, conditions: Hepatitis C virus, Huh-7

| Compound | EC50 |
| --- | --- |
| C=C[C@@H]1C[C@@]1(NC(=O)[C@@H]1C[C@@H](Oc2cc(-c3ccccc3)nc3cc(OC)ccc23)CN1C(=O)[C@@H](CC(=O)N1CCCCC1)C(C)(C)C)C(=O)NS(=O)(=O)C1CC1 [Compound 38, (2S,4R)-1-((S)-2-tert-butyl-4-oxo-4-(piperidin-1-yl)butanoyl)-N-((1S,2S)-1-(cyclopropylsulfonyl-carbamoyl)-2-vinylcyclopropyl)-4-(7-methoxy-2-phenylquinolin-4-yloxy)pyrrolidine-2-carboxamide] | ≤ 10000 nM |
